Test results from ChEMBL document CHEMBL1158328, “Three new pseudodistomins, piperidine alkaloids from the ascidian Pseudodistoma megalarva” (1997).

Assays:
Assay type in all cases: functional
Saccharomyces cerevisiae [1] = experiment: DNA damaging activity against RAD52 DNA repair gene/topoisomerase 1 deficient Saccharomyces cerevisiae GAL4:RAD52 mutant assessed as drug level required to produce 12 mm zone of inhibition assessed per 100 uL in galactose medium after 48 hrs
Saccharomyces cerevisiae [2] = experiment: DNA damaging activity against RAD52 DNA repair gene/topoisomerase 1 deficient Saccharomyces cerevisiae GAL4:RAD52 mutant assessed as drug level required to produce 12 mm zone of inhibition assessed per 100 uL in glucose medium after 48 hrs
Saccharomyces cerevisiae [3] = experiment: DNA damaging activity against RAD52 DNA repair gene deficient Saccharomyces cerevisiae mutant assessed as drug level required to produce 12 mm zone of inhibition assessed per 100 uL after 48 hrs
Saccharomyces cerevisiae [4] = experiment: DNA damaging activity against wild-type Saccharomyces cerevisiae assessed as drug level required to produce 12 mm zone of inhibition assessed per 100 uL after 48 hrs

SMILES	Activity (Saccharomyces cerevisiae [1]) [µg]	Activity (Saccharomyces cerevisiae [2]) [µg]	Activity (Saccharomyces cerevisiae [3]) [µg]	Activity (Saccharomyces cerevisiae [4]) [µg]
COc1cc(NS(C)(=O)=O)ccc1Nc1c2ccccc2nc2ccccc12 [AMSACRINE]	>20	2.7	8.2	>20
CCCC/C=C/C=C/CCCCC[C@@H]1C[C@@H](O)[C@@H](N)CN1 [PSEUDODISTOMIN B]	1.5	1.5	1.8	13
CCCC/C=C/C=C/CCC/C=C/C=C/[C@@H]1C[C@H](O)[C@H](N)CN1 [PSEUDODISTOMIN C]	13	12	20	38
CCCC/C=C/C=C/CCCCC[C@@H]1C[C@H](O)[C@@H](N)CN1 [PSEUDODISTOMIN D]	2	1.9	3.8	11
CCCC/C=C/C=C/CCCCC[C@@H]1C[C@H](O)[C@H](N)CN1 [PSEUDODISTOMIN E]	2.3	1.8	4.3	12
CCCC/C=C/C=C/CCC/C=C/C=C/[C@@H]1C[C@@H](O)[C@@H](N)CN1 [PSEUDODISTOMIN F]	3.3	3.1	9	20
CO[C@H]1C[C@@H]2CC[C@@H](C)[C@@](O)(O2)C(=O)C(=O)N2CCCC[C@H]2C(=O)O[C@H]([C@H](C)C[C@@H]2CC[C@@H](O)[C@H](OC)C2)CC(=O)[C@H](C)/C=C(\C)[C@@H](O)[C@@H](OC)C(=O)[C@H](C)C[C@H](C)/C=C/C=C/C=C/1C [SIROLIMUS]	0.00074	0.00044	0.00057	0.00043
COC1=C(N)C(=O)c2nc(-c3nc(C(=O)O)c(C)c(-c4ccc(OC)c(OC)c4O)c3N)ccc2C1=O [STREPTONIGRIN]	>0.1	0.009	0.012	>0.1
